# Data reported in publication PMC5364125 (EJNMMI Research, 2017).
# Where “and” joins values, the source holds several entries; their conditions need not be identical. Identical values can stand only once. Like-named read-outs stand apart in the source and are kept apart here.
# Assays:
# [1] = tested on: TSPO; design: method as in PMID 25771904; details: herpes encephalitis rat model; cited from earlier work
# [2] = tested on: TSPO; assay: Dynamic brain PET, V T by two-tissue compartment model; type: in vivo, human
# Protocol: (§1) PET scanning was performed using a Discovery PET/computed tomography (CT) 710 scanner (GE Healthcare, Milwaukee, WI) in 3D mode. This scanner has an axial field of view of 15.7 cm, a spatial resolution of 4.5 mm full width at half maximum (FWHM), and a Z-axis resolution of 4.8 mm FWHM. We acquired 47 slices. […] Arterial blood (0.5 mL each) was sampled at 10, 20, 30, 40, 50, 60, 70, 80, 90, 100, 110, 120, 135, 150, and 180 s, as well as at 5, 7, 10, 15, 20, 30, 40, 50, 60, 75, and 90 min. The whole blood and separated plasma were weighed, and radioactivity was measured with a NaI (Tl) well scintillation counter (BeWell Model-QS03 F/B; Molecular Imaging Labo, Suita, Japan). To analyze the labeled metabolites, 1.5 mL additional blood was obtained at 3, 10, 20, 30, 40, and 60 min. After the PET scan, urine was obtained from each subject, and radioactivity was measured.
# The dynamic images were post-smoothed with a 4-mm FWHM Gaussian filter. The data were reconstructed in 128 × 128 × 47 voxels, and the voxel size was 2 × 2 × 3.27 mm. Partially overlapping circular regions of interests (ROIs) that were 10 mm in diameter were placed on the frontal, temporal, parietal, occipital, and cerebellar cortices, thalamus, putamen, and head of the caudate nucleus with reference to the co-registered MRI. TACs for these ROIs were calculated as becquerel per milliliter or as standardized uptake value (SUV): (activity/ml tissue)/(injected activity/g body weight). […] The goodness of fit by the two-model analysis was evaluated using AIC.
# [3] = HPLC metabolite analysis of plasma and urine; type: in vivo, human
# Protocol: as §1
# [4] = estimated from murine distribution data; cited from earlier work
# [5] = tested on: TSPO; design: method as in PMID 25616581; details: 6-hydroxydopamine-injured striatum; cited from earlier work
# [6] = Source text: The protocol for investigating radiation dosimetry in human subjects using whole-body imaging was essentially the same as that reported previously.
# Whole-body PET/CT scans were obtained using a Discovery 710 PET/CT scanner (GE Healthcare) in 3D mode. LD-CT was used for attenuation correction of the PET emission scan. […] Then, 128-min scans (18 frames, 13 bed positions per frame, overlap of 23 of 47 slices per bed, 15 s/bed × four frames, 30 s/bed × 12 frames, and 60 s/bed × two frames) from the top of the head to mid-thigh were performed. Images were reconstructed using a 3D-ordered subset expectation maximization algorithm (subset, 24; iteration, 2) with a 6.4-mm Gaussian filter.
# ROIs were manually placed over […] that could be identified on PET or LD-CT: adrenals, brain, gallbladder, small intestine, stomach, heart wall, kidneys, liver, lungs, pancreas, bone marrow (thoracic and lumbar vertebrae), spleen, testes, thymus, thyroid, and urinary bladder. The decay-uncorrected and decay-corrected TACs of organs were calculated as the percent injected dose (%ID) per milliliter and the %ID per organ. The volume of bone marrow, in which only part of the organ could be measured, was substituted by the volume that was calculated from the mass of red marrow in the adult male phantom (1.12 kg for 73.7 kg of body weight) adjusted by the subject’s body weight and 1.04 g/mL as the specific gravity. The normalized number of disintegrations (MBq-h/MBq administered) for each source organ is equal to the area under the time course of decay-uncorrected curve (%ID/mL) multiplied by the volume of the organ ROI. The area under the time course curve was calculated by summing the area from time zero to the endpoint of the scan and the area from the endpoint of the scan to infinity. The former area was calculated by trapezoidal integration. The latter area was calculated by integration of radioactive decay from the endpoint.
# The absorbed doses in 25 target organs of the adult male phantom were estimated from the normalized number of disintegrations of source organs by implementing the Medical Internal Radiation Dose method using OLINDA/EXM (Vanderbilt University). The effective dose was also calculated by OLINDA/EXM using the methodology described in International Commission on Radiological Protection Publication 60 [40].
# [7] = two-tissue compartment model, typical subjects n = 4
smiles,measurement,setting,value
"CCCN(CCC)C(=O)Cc1c(-c2ccc(O[11CH3])cc2)nc2c(Cl)cc(Cl)cn12 [[^11C]CB184, N,N-di-n-propyl-2-[2-(4-[^11C]methoxyphenyl)-6,8-dichloroimidazol[1,2-a]pyridine-3-yl]acetamide]",regional uptake into inflamed areas compared with (R)-[^11C]PK11195,[1],higher
same,time of peak radioactivity in all gray matter regions,"[2]; after intravenous injection, typical subjects n = 4",about 5 min
same,V T values relative to those of (R)-[^11C]PK11195,[2]; comparison with ref 15 values,10 times
same,V T caudate,[2]; [7],3.2 ± 0.1 mL/cm^3
same,V T cerebellum,[2]; [7],4.4 ± 0.2 mL/cm^3
same,V T frontal cortex,[2]; [7],4.0 ± 0.2 mL/cm^3
same,V T occipital cortex,[2]; [7],4.3 ± 0.2 mL/cm^3 and 4.3 ± 0.5 mL/cm^3
same,V T parietal cortex,[2]; [7],3.9 ± 0.3 mL/cm^3
same,V T putamen,[2]; [7],4.0 ± 0.2 mL/cm^3
same,V T temporal cortex,[2]; [7],3.9 ± 0.4 mL/cm^3
same,V T thalamus,[2]; [7],5.1 ± 0.4 mL/cm^3
same,Percentage of radioactivity in plasma,"[3]; 3 min after intravenous injection of [^11C]CB184, n = 5",96.1 ± 2.7%
same,Percentage of radioactivity in plasma,"[3]; 10 min after intravenous injection of [^11C]CB184, n = 5",83.8 ± 8.9%
same,Percentage of radioactivity in plasma,"[3]; 20 min after intravenous injection of [^11C]CB184, n = 5",61.6 ± 8.0%
same,Percentage of radioactivity in plasma,"[3]; 30 min after intravenous injection of [^11C]CB184, n = 5",52.9 ± 4.9%
same,Percentage of radioactivity in plasma,"[3]; 40 min after intravenous injection of [^11C]CB184, n = 5",47.0 ± 5.0%
same,parent radioligand in voided urine,[3]; HPLC of voided urine,not detected
same,broad hydrophilic metabolites in urine,"[3]; HPLC of voided urine, n = 3",99.4% ± 0.6
same,total injected radioactivity recovered in urine,[3]; approximately 100 min post-injection,0.3%
same,"radioactivity voided into urine, of the injected activity","[3]; at 111 ± 17 min, n = 8",0.3% ± 0.0
same,organ with highest radiation-absorbed dose,[4],highest in the lung
same,regional uptake into inflamed areas compared with (R)-[^11C]PK11195,[5],comparable
same,"radioactivity voided into urine, of the injected activity","[6]; at 132 ± 0 min, n = 3",0.3% ± 0
same,"lungs radioactivity, initial time point","[6]; at 3.3 min, one subject",25 %ID
same,lungs uptake,[6]; first frame,25 % injected activity
same,"Absorbed dose, Adrenals",[6]; healthy male subjects n = 3,4.6 ± 0.9 μGy/MBq
same,"Absorbed dose, Brain",[6]; healthy male subjects n = 3,4.0 ± 0.3 μGy/MBq
same,"Absorbed dose, Breasts",[6]; healthy male subjects n = 3,2.2 ± 0.0 μGy/MBq
same,"Absorbed dose, Gallbladder wall",[6]; healthy male subjects n = 3,5.4 ± 0.4 μGy/MBq
same,"Absorbed dose, Heart wall",[6]; healthy male subjects n = 3,12.8 ± 0.5 μGy/MBq
same,"Absorbed dose, Kidneys",[6]; healthy male subjects n = 3,21.0 ± 0.5 μGy/MBq
same,"Absorbed dose, Liver",[6]; healthy male subjects n = 3,8.3 ± 0.9 μGy/MBq
same,"Absorbed dose, Lower large intestine wall",[6]; healthy male subjects n = 3,2.3 ± 0.1 μGy/MBq
same,"Absorbed dose, Lungs",[6]; healthy male subjects n = 3,16.8 ± 2.7 μGy/MBq
same,"Absorbed dose, Muscle",[6]; healthy male subjects n = 3,2.2 ± 0.1 μGy/MBq
same,"Absorbed dose, Osteogenic cells",[6]; healthy male subjects n = 3,3.6 ± 0.1 μGy/MBq
same,"Absorbed dose, Ovaries",[6]; healthy male subjects n = 3,2.5 ± 0.1 μGy/MBq
same,"Absorbed dose, Pancreas",[6]; healthy male subjects n = 3,16.5 ± 2.2 μGy/MBq
same,"Absorbed dose, Red marrow",[6]; healthy male subjects n = 3,3.2 ± 0.1 μGy/MBq
same,"Absorbed dose, Skin",[6]; healthy male subjects n = 3,1.7 ± 0.1 μGy/MBq
same,"Absorbed dose, Small intestine",[6]; healthy male subjects n = 3,5.4 ± 0.9 μGy/MBq
same,"Absorbed dose, Spleen",[6]; healthy male subjects n = 3,16.6 ± 6.6 μGy/MBq
same,"Absorbed dose, Stomach wall",[6]; healthy male subjects n = 3,4.5 ± 0.9 μGy/MBq
same,"Absorbed dose, Testes",[6]; healthy male subjects n = 3,3.6 ± 0.7 μGy/MBq
same,"Absorbed dose, Thymus",[6]; healthy male subjects n = 3,2.1 ± 0.0 μGy/MBq
same,"Absorbed dose, Thyroid",[6]; healthy male subjects n = 3,12.0 ± 3.9 μGy/MBq
same,"Absorbed dose, Total body",[6]; healthy male subjects n = 3,2.8 ± 0.0 μGy/MBq
same,"Absorbed dose, Upper large intestine wall",[6]; healthy male subjects n = 3,2.8 ± 0.1 μGy/MBq
same,"Absorbed dose, Urinary bladder wall",[6]; healthy male subjects n = 3,2.1 ± 0.1 μGy/MBq
same,"Absorbed dose, Uterus",[6]; healthy male subjects n = 3,2.5 ± 0.1 μGy/MBq
same,Effective dose,[6]; healthy male subjects n = 3,5.9 ± 0.6 μSv/MBq
same,lungs uptake,[6]; last frame,4.2 % injected activity
same,"Normalized number of disintegrations, Adrenals","[6]; mean ± SD, n = 3",1.3E-04 ± 5.7E-05 (9.5E-05 – 2.0E-04) MBq-h/MBq administered
same,"Normalized number of disintegrations, Brain","[6]; mean ± SD, n = 3",1.6E-02 ± 1.3E-03 (1.5E-02 – 1.7E-02) MBq-h/MBq administered
same,"Normalized number of disintegrations, Gallbladder contents","[6]; mean ± SD, n = 3",8.6E-04 ± 2.3E-04 (7.1E-04 – 1.1E-03) MBq-h/MBq administered
same,"Normalized number of disintegrations, Heart wall","[6]; mean ± SD, n = 3",1.3E-02 ± 6.2E-04 (1.3E-02 – 1.4E-02) MBq-h/MBq administered
same,"Normalized number of disintegrations, Kidneys","[6]; mean ± SD, n = 3",2.2E-02 ± 4.7E-04 (2.2E-02 – 2.2E-02) MBq-h/MBq administered
same,"Normalized number of disintegrations, Liver","[6]; mean ± SD, n = 3",4.2E-02 ± 5.4E-03 (3.8E-02 – 4.8E-02) MBq-h/MBq administered
same,"Normalized number of disintegrations, Lungs","[6]; mean ± SD, n = 3",6.2E-02 ± 1.1E-02 (5.1E-02 – 7.2E-02) MBq-h/MBq administered
same,"Normalized number of disintegrations, Pancreas","[6]; mean ± SD, n = 3",5.2E-03 ± 7.6E-04 (4.5E-03 – 6.0E-03) MBq-h/MBq administered
same,"Normalized number of disintegrations, Red marrow","[6]; mean ± SD, n = 3",1.0E-02 ± 1.7E-03 (8.8E-03 – 1.2E-02) MBq-h/MBq administered
same,"Normalized number of disintegrations, Remainder","[6]; mean ± SD, n = 3",2.9E-01 ± 2.0E-02 (2.8E-01 – 3.2E-01) MBq-h/MBq administered
same,"Normalized number of disintegrations, Small intestine","[6]; mean ± SD, n = 3",1.0E-02 ± 2.9E-03 (6.9E-03 – 1.3E-02) MBq-h/MBq administered
same,"Normalized number of disintegrations, Spleen","[6]; mean ± SD, n = 3",1.0E-02 ± 4.5E-03 (4.9E-03 – 1.3E-02) MBq-h/MBq administered
same,"Normalized number of disintegrations, Stomach","[6]; mean ± SD, n = 3",3.2E-03 ± 1.7E-03 (2.1E-03 – 5.2E-03) MBq-h/MBq administered
same,"Normalized number of disintegrations, Testes","[6]; mean ± SD, n = 3",4.3E-04 ± 1.1E-04 (3.1E-04 – 5.0E-04) MBq-h/MBq administered
same,"Normalized number of disintegrations, Thymus","[6]; mean ± SD, n = 3",3.8E-05 ± 1.8E-06 (3.7E-05 – 4.1E-05) MBq-h/MBq administered
same,"Normalized number of disintegrations, Thyroid","[6]; mean ± SD, n = 3",9.4E-04 ± 3.4E-04 (6.3E-04 – 1.3E-03) MBq-h/MBq administered
same,"Normalized number of disintegrations, Urinary bladder contents","[6]; mean ± SD, n = 3",9.8E-05 ± 3.7E-05 (5.5E-05 – 1.2E-04) MBq-h/MBq administered
same,time of peak radioactivity in liver,[6]; whole-body PET,20 min
